The values below come from article PMC5896373 (Molecular Pharmacology, 2018).

The test system of assay [1] is P2X7R left flipper point mutant T282A. The assay can be described thus: Two-electrode voltage clamp of ATP-evoked currents in Xenopus oocytes. In kind it is cell-based, human. (In general: In two-electrode clamp one electrode senses voltage and the other passes current.)
Method: The production of the correct mutations and absence of coding errors was determined by DNA sequencing (Automated ABI Sequencing Service, University of Leicester, UK). cRNA was generated for the mutants and 50 nl (50 ng) was injected into manually defoliculated stage V Xenopus laevis oocytes using an Inject+Matic microinjector (J.A. Gabay, Inject+Matic, Geneva, Switzerland). Injected oocytes were stored at 16°C in ND96 buffer [in millimolar concentrations, NaCl 96, KCl 2, CaCl2 1.8, MgCl2 1, sodium pyruvate 5, and HEPES 5 (pH 7.6) supplemented with 50 μg/ml gentamycin and 50 μg/ml tetracycline]. Three to seven days postinjection two-electrode voltage clamp recordings were made from oocytes bathed in divalent-free ND96 buffer (in millimolar concentrations, NaCl 96, KCl 2, sodium pyruvate 5, HEPES 5, and 0.1 flufenamic acid, pH 7.6). Oocytes were voltage clamped at a holding potential of −60 mV with a GeneClamp500B amplifier (Molecular Devices).
Inhibition by the antagonists was expressed as the percentage of the peak current amplitude of an EC90 concentration of ATP recorded before the application of antagonist (ATP gave reproducible responses to ATP in the absence of antagonist). Inhibition curves were fitted with the Hill equation (variable slope) using GraphPad Prism 6 (GraphPad Software, San Diego, CA). […]
For another assay, the target named is T1, P2X7R point mutant K110Y (Homo sapiens, UniProt Q99572, I21V/K110Y/M24R/N16P/N25R/Q22R/R20V/S23N/T19I/Y26L).
T1 construct: expressed in transfected cells; host or cells: Xenopus laevis oocytes (cRNA injection)
T1 sequence (Q99572 1-595 N16P/T19I/R20V/I21V/Q22R/S23N/M24R/N25R/Y26L/K110Y): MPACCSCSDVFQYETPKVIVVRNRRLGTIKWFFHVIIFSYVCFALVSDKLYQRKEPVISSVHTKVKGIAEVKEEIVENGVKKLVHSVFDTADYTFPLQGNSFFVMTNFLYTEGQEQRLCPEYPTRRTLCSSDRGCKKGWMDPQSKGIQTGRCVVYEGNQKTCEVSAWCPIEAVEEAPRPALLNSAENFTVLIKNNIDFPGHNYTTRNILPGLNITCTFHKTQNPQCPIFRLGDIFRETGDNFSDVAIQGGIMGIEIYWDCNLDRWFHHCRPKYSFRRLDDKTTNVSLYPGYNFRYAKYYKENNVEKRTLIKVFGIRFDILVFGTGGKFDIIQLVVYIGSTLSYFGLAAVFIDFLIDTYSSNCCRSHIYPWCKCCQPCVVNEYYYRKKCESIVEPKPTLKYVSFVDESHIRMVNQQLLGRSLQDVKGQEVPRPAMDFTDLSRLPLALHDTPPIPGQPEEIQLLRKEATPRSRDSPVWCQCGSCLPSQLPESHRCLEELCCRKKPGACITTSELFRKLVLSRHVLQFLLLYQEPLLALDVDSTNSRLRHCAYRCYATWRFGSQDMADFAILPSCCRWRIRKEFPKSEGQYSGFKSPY
The arrangement: method as in Allsopp et al., 2017. The following applies: ref Allsopp et al., 2017; cited from earlier work.

In another assay the target is T2, P2X7R mutant Insert G99 (Homo sapiens, UniProt Q99572, I21V/INS99D/M24R/N16P/N25R/Q22R/R20V/S23N/T19I/Y26L).
T2 construct: expressed in transfected cells; host or cells: Xenopus laevis oocytes (cRNA injection)
T2 sequence (Q99572 with tags, fused parts or gaps N16P/T19I/R20V/I21V/Q22R/S23N/M24R/N25R/Y26L/INS99D): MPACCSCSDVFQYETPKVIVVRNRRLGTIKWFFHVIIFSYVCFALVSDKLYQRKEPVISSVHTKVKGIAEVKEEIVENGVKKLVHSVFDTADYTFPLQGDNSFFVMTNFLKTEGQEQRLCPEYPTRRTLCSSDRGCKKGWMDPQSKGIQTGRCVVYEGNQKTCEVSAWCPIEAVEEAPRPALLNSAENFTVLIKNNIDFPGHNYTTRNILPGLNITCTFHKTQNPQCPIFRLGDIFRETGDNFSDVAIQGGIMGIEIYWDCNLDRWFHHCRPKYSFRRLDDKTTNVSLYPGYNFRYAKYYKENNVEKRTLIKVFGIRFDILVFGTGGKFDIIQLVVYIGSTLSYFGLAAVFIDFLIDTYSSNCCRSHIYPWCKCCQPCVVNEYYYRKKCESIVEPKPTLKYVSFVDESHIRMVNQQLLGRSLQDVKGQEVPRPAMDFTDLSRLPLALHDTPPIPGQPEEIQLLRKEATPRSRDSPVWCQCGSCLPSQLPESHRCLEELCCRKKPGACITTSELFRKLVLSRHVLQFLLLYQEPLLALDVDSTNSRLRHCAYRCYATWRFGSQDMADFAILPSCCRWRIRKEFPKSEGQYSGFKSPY
The arrangement: method as in Allsopp et al., 2017. The following applies: aspartic acid inserted between G99 and N100; ref Allsopp et al., 2017; cited from earlier work.

Assay [2] concerns the target T3, chimeric P2X7/1 receptor 279–285 (left flipper) (Homo sapiens, UniProt Q99572, DEL279-281/I21V/M24R/N16P/N25R/N284E/Q22R/R20V/S23N/T19I/T282Y/T283E/V285K/Y26L).
T3 construct: expressed in transfected cells; host or cells: Xenopus laevis oocytes (cRNA injection)
T3 sequence (Q99572 with tags, fused parts or gaps N16P/T19I/R20V/I21V/Q22R/S23N/M24R/N25R/Y26L/DEL279-281/T282Y/T283E/N284E/V285K): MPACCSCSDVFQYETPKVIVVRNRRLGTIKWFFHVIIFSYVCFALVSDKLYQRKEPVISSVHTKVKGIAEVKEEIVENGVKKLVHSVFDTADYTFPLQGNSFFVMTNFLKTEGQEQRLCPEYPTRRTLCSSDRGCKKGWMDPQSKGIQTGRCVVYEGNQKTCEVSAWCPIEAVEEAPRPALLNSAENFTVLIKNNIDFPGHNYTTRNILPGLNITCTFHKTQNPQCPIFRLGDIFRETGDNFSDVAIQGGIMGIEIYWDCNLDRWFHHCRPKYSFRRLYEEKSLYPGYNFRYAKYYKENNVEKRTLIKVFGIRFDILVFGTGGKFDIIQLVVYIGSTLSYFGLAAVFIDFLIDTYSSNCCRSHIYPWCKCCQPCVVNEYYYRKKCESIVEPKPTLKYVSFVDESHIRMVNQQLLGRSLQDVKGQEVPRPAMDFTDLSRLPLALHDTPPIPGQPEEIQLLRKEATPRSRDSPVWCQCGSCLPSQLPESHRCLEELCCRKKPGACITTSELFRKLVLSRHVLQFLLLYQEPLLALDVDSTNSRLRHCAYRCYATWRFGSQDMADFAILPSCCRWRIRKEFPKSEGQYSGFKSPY
The arrangement: method as in Allsopp et al., 2017. The conditions noted are these: chimera 279–285; ref Allsopp et al., 2017; cited from earlier work.

The next assay has as its target T4, hP2X1R (Homo sapiens, UniProt P51575).
T4 construct: expressed in transfected cells; host or cells: Xenopus laevis oocytes (cRNA injection)
The assay can be described thus: Two-electrode voltage clamp of ATP-evoked currents in Xenopus oocytes. The assay is classed as cell-based.

T4 sequence (P51575 whole entry): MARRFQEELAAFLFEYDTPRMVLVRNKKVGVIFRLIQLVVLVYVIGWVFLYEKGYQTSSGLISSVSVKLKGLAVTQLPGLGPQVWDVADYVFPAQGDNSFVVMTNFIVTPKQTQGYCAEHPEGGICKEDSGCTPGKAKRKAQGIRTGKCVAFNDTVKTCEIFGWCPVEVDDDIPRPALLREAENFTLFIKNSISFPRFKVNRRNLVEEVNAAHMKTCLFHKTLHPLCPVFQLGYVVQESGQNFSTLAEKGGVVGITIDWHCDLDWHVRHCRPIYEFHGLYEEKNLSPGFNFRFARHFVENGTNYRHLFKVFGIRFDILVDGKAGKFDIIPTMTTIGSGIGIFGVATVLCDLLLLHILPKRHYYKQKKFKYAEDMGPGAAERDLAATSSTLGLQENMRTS

With `COc1ccc(CC(=O)NC(N=C(NC#N)Nc2cccc3ncccc23)C(C)(C)C)cc1OC` (centres unmarked) [A740003, N-[1-[[(cyanoamino)(5-quinolinylamino)methylene]amino]-2,2-dimethylpropyl]-3,4-dimethoxybenzeneacetamide], the “effect on antagonist sensitivity relative to P2X7-2Nβ” value in assay [1] is “no effect”.
On to `Cl.Cl.O=C(CC12CC3CC(CC(C3)C1)C2)Nc1cccc2nc(NCCNCCO)ccc12` [AZ10606120, N-[2-[[2-[(2-hydroxyethyl)amino]ethyl]amino]-5-quinolinyl]-2-tricyclo[3.3.1.13,7]dec-1-ylacetamide dihydrochloride], for which the “effect on antagonist sensitivity” value on P2X7R point mutant K110Y was “increased”; in assay [2] it was “no effect”. For the same compound, at P2X7R mutant Insert G99, the “effect on antagonist binding” value is on record as “little effect”.
With `Cl.Clc1cccc(-c2nnnn2Cc2cccnc2)c1Cl.O` [A438079, 3-(5-(2,3-dichlorophenyl)-1H-tetrazol-1-yl)methyl pyridine hydrochloride hydrate], the “inhibition of ATP (EC90)-evoked currents” value on hP2X1R was “ineffective”.
